Reference: ChEMBL document CHEMBL1155632, “Sesquiterpenes from the basidiomycete Omphalotus illudens” (J Nat Prod, 2000)
Activity calls are given as the source filed them. The calls are words filed in the database; no cut-off is given here.

Tests used:
Staphylococcus aureus = experiment: Antibacterial activity against Staphylococcus aureus ATCC 29213; type: functional, organism-based
Bacillus subtilis = experiment: Antibacterial activity against Bacillus subtilis ATCC 6633 at 10 ug/disk; type: functional, organism-based
Candida albicans = experiment: Antifungal activity against Candida albicans ATCC 32354; type: functional, organism-based
Pseudomonas aeruginosa = experiment: Antibacterial activity against Pseudomonas aeruginosa ATCC 27853; type: functional, organism-based
Escherichia coli = experiment: Genotoxicity against Escherichia coli PQ37 at 50 ug/disk; type: toxicity, organism-based

SMILES | Activity (Staphylococcus aureus) | Activity (Bacillus subtilis) | Activity (Candida albicans) | Activity (Pseudomonas aeruginosa) | Activity (Escherichia coli)
C/C(CO)=C1\[C@@H](O)C[C@]1(C)[C@H]1CC(C)(C)C[C@@H]1O | inactive | inactive | inactive | inactive | Not Active
CC1(C)C[C@H]2[C@@H](CC[C@@]2(C)O)[C@]2(C)CC2[C@H]1OC(=O)c1cc([N+](=O)[O-])cc([N+](=O)[O-])c1 (stereo not given in full) | inactive | inactive | inactive | inactive | Not Active
C/C(C=O)=C1\C(=O)C[C@]1(C)[C@H]1CC(C)(C)CC1=O | inactive | inactive | inactive | inactive | Not Active
C/C(C=O)=C1\[C@@H](O)C[C@]1(C)[C@H]1CC(C)(C)C[C@@H]1O [ILLUDOSIN] | inactive | Active | inactive | inactive | Active
